Results from patent publication US20250059180A1 (DONG WHA PHARM. CO., LTD., priority 2022, published 2025).
Structures can show the parent of a compound that is named as a salt. Where two headings read alike, the source gives them in different places.

Tested on: Pfeiffer cells, lymphoma cells having EZH2 mutation (A677G)
Experiment: Proliferation inhibition of cells of hematologic malignancies (CCK-8, 11 days)
Format: cell-based
Details: 11 days culture, read-out: Cell proliferation inhibitory effect (IC50)
How it was run: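 Pfeiffer lymphoma cells (EZH2 A677G) in RPMI1640 with 10% FBS were seeded at 10,000 cells/well and exposed to test material for 11 days, with compound replaced every 3–4 days. Viability was read by CCK-8 absorbance at 450 nm, and IC50 was derived by non-linear regression curve fitting.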

Structure (SMILES)	IC50 (Homo sapiens, Pfeiffer, 264 h) [nM]	IC50 [nM]
CSc1cc(C)[nH]c(=O)c1CNC(=O)c1cc(-c2ccc(N3C[C@@H](C)O[C@@H](C)C3)nc2)c2c(c1C)OC(C)(C1CCN(CCCC(F)(F)F)CC1)O2 (single isomer, unassigned) [Compound 57]	–	≤ 10
COC(CN1CCC(C2(C)Oc3c(-c4ccc(N5C[C@@H](C)O[C@@H](C)C5)nc4)cc(C(=O)NCc4c(SC)cc(C)[nH]c4=O)c(C)c3O2)CC1)OC (stereo partly drawn) [Compound 41, 2-(1-(2,2-dimethoxyethyl)piperidin-4-yl)-7-(6-((2S,6R)-2,6-dimethylmorpholino)pyridin-3-yl)-2,4-dimethyl-N-((6-methyl-4-(methylthio)-2-oxo-1,2-dihydropyridin-3-yl)methyl)benzo[d][1,3]dioxole-5-carboxamide]	≤ 10	–
CCN1CCN(c2ncc(-c3cc(C(=O)NCc4c(SC)cc(C)[nH]c4=O)c(C)c4c3OC(C)(C3CCN(CC(F)(F)F)CC3)O4)cn2)CC1 (single isomer, unassigned) [Compound 76, 7-(2-(4-ethylpiperazin-1-yl)pyrimidin-5-yl)-2,4-dimethyl-N-((6-methyl-4-(methylthio)-2-oxo-1,2-dihydropyridin-3-yl)methyl)-2-(1-(2,2,2-trifluoroethyl)piperidin-4-yl)benzo[d][1,3]dioxole-5-carboxamide]	–	≤ 10
CCN1CCN(c2ncc(-c3cc(C(=O)NCc4c(SC)cc(C)[nH]c4=O)c(C)c4c3OC(C)(C3CCN(CC(F)(F)F)CC3)O4)cn2)CC1 (single isomer, unassigned) [Compound 77, 7-(2-(4-ethylpiperazin-1-yl)pyrimidin-5-yl)-2,4-dimethyl-N-((6-methyl-4-(methylthio)-2-oxo-1,2-dihydropyridin-3-yl)methyl)-2-(1-(2,2,2-trifluoroethyl)piperidin-4-yl)benzo[d][1,3]dioxole-5-carboxamide]	–	≥ 100
CSc1cc(C)[nH]c(=O)c1CNC(=O)c1cc(-c2cnc(N3CCOCC3)nc2)c2c(c1C)OC(C)(C1CCN(CC(F)(F)F)CC1)O2 (stereo not drawn) [Compound 68, 2,4-dimethyl-N-((6-methyl-4-(methylthio)-2-oxo-1,2-dihydropyridin-3-yl)methyl)-7-(2-morpholinopyrimidin-5-yl)-2-(1-(2,2,2-trifluoro)piperidin-4-yl)benzo[d][1,3]dioxole-5-carboxamide]	≤ 10	–
CSc1cc(C)[nH]c(=O)c1CNC(=O)c1cc(-c2ccc(N3CCSCC3)nc2)c2c(c1C)OC(C)([C@H]1CC[C@H](N(C)C)CC1)O2 (stereo partly drawn) [Compound 17, 2-(trans-4-(dimethylamino)cyclohexyl)-2,4-dimethyl-N-((6-methyl-4-(methylthio)-2-oxo-1,2-dihydropyridin-3-yl)methyl)-7-(6-thiomorpholinopyridin-3-yl)benzo[d][1,3]dioxole-5-carboxamide]	≤ 10	–
CSc1cc(C)[nH]c(=O)c1CNC(=O)c1cc(-c2ccc(CN3CCOCC3)cc2)c2c(c1C)OC(C)([C@H]1CC[C@H](N(C)C)CC1)O2 (stereo partly drawn) [Compound 6, 2-(trans-4-(dimethylamino)cyclohexyl)-2,4-dimethyl-N-((6-methyl-4-(methylthio)-2-oxo-1,2-dihydropyridin-3-yl)methyl)-7-(4-(morpholinomethyl)phenyl)benzo[d][1,3]dioxole-5-carboxamide]	≤ 10	–
CSc1cc(C)[nH]c(=O)c1CNC(=O)c1cc(-c2ccc(N3CCOCC3)nc2)c2c(c1C)OC(C)(C1CCN(CC(F)F)CC1)O2 (single isomer, unassigned) [Compound 65, 2-(1-(2,2-difluoroethyl)piperidin-4-yl)-2,4-dimethyl-N-((6-methyl-4-(methylthio)-2-oxo-1,2-dihydropyridin-3-yl)methyl)-7-(6-morpholinopyridin-3-yl)benzo[d][1,3]dioxole-5-carboxamide]	–	≥ 100

Results, then the compound that gave them:

IC50 (Homo sapiens, Pfeiffer, 264 h) [nM]	IC50 [nM]	Structure (SMILES)
≤ 10	–	CSc1cc(C)[nH]c(=O)c1CNC(=O)c1cc(-c2ccc(N3C[C@@H](C)O[C@@H](C)C3)nc2)c2c(c1C)OC(C)([C@H]1CC[C@H](N(C)C(C)C)CC1)O2 (stereo partly drawn) [Compound 110, 7-(6-((2S,6R)-2,6-dimethylmorpholino)pyridin-3-yl)-2-(trans-4-(isopropyl(methyl)amino)cyclohexyl)-2,4-dimethyl-N-((6-methyl-4-(methylthio)-2-oxo-1,2-dihydropyridin-3-yl)methyl)benzo[d][1,3]dioxole-5-carboxamide]
10 to 100	–	CSc1cc(C)[nH]c(=O)c1CNC(=O)c1cc(-c2cnc(N3CCSCC3)nc2)c2c(c1C)OC(C)(C1CCN(CC(F)(F)F)CC1)O2 (stereo not drawn) [Compound 92, 2,4-dimethyl-N-((6-methyl-4-(methylthio)-2-oxo-1,2-dihydropyridin-3-yl)methyl)-7-(2-thiomorpholinopyrimidin-5-yl)-2-(1-(2,2,2-trifluoroethyl)piperidin-4-yl)benzo[d][1,3]dioxole-5-carboxamide]
≥ 100	–	CSc1cc(C)[nH]c(=O)c1CNC(=O)c1cc(-c2ccc(N3CCCCC3)nc2)c2c(c1C)OC(C)(C1CCN(CC(F)(F)F)CC1)O2 (stereo not drawn) [Compound 91, 2,4-dimethyl-N-((6-methyl-4-(methylthio)-2-oxo-1,2-dihydropyridin-3-yl)methyl)-7-(6-(piperidin-1-yl)pyridin-3-yl)-2-(1-(2,2,2-trifluoroethyl)piperidin-4-yl)benzo[d][1,3]dioxole-5-carboxamide]
≤ 10	–	CCN(C)c1ccc(-c2cc(C(=O)NCc3c(SC)cc(C)[nH]c3=O)c(C)c3c2OC(C)(C2CCN(CC(F)(F)F)CC2)O3)cn1 (single isomer, unassigned) [Compound 86, 7-(6-(ethyl(methyl)amino)pyridin-3-yl)-2,4-dimethyl-N-((6-methyl-4-(methylthio)-2-oxo-1,2-dihydropyridin-3-yl)methyl)-2-(1-(2,2,2-trifluoroethyl)piperidin-4-yl)benzo[d][1,3]dioxole-5-carboxamide]
≤ 10	–	CSc1cc(C)[nH]c(=O)c1CNC(=O)c1cc(-c2ccc(N3C[C@@H](C)O[C@@H](C)C3)nc2)c2c(c1C)OC(C)([C@H]1CC[C@H](N)CC1)O2 (stereo partly drawn) [Compound 100, 2-(trans-4-aminocyclohexyl)-7-(6-((2S,6R)-2,6-dimethylmorpholino)pyridin-3-yl)-2,4-dimethyl-N-((6-methyl-4-(methylthio)-2-oxo-1,2-dihydropyridin-3-yl)methyl)benzo[d][1,3]dioxole-5-carboxamide hydrochloride salt]
≤ 10	–	CCN(C)c1ccc(-c2cc(C(=O)NCc3c(SC)cc(C)[nH]c3=O)c(C)c3c2OC(C)(C2CCN(CC(F)F)CC2)O3)cn1 (single isomer, unassigned) [Compound 88, 2-(1-(2,2-difluoroethyl)piperidin-4-yl)-7-(6-(ethyl(methyl)amino)pyridin-3-yl)-2,4-dimethyl-N-((6-methyl-4-(methylthio)-2-oxo-1,2-dihydropyridin-3-yl)methyl)benzo[d][1,3]dioxole-5-carboxamide]
–	10 to 100	CCN(C)c1ncc(-c2cc(C(=O)NCc3c(SC)cc(C)[nH]c3=O)c(C)c3c2OC(C)(C2CCN(CC(F)F)CC2)O3)cn1 (single isomer, unassigned) [Compound 82, 2-(1-(2,2-difluoroethyl)piperidin-4-yl)-7-(2-(ethyl(methyl)amino)pyrimidin-5-yl)-2,4-dimethyl-N-((6-methyl-4-(methylthio)-2-oxo-1,2-dihydropyridin-3-yl)methyl)benzo[d][1,3]dioxole-5-carboxamide]
